Read-outs that look alike come from different tables or passages of the source.
Legend:
Format in all cases: in vivo
[1] = system: metrazole-induced clonic seizures; test: Subcutaneous Metrazole Seizure Threshold Test (scMET), mice; details: for responders at 30 mg/kg / responders at 100 mg/kg / responders at 300 mg/kg: Mus musculus, sc
Description: The subcutaneous injection of metrazole, which is a convulsant, produces clonic seizures in laboratory animals. The scMET test is designed to identify compounds that raise the seizure threshold of an animal. Mice are pretreated with test compound at 30, 100, and 300 mg/kg doses in a similar manner to the MES test. Rats are treated with a 50 mg/kg dose (p.o.). At the previously determined TPE of the test compound, the dose of metrazole that will induce convulsions in 97% of animals (CD97: 85 mg/kg mice) is injected into the loose fold of the skin in the midline of the neck. The animals are placed in isolation cages to minimize stress and observed for the next 30 minutes for the presence or absence of seizures. An episode of clonic spasms (approximately 3-5 seconds) of the fore and/or hindlimbs, jaws or vibrissae is taken as the endpoint.
(§1) Male and female albino CF1 mice (18-25 g, Charles River, Portage, Mich.) and male albino Sprague-Dawley rats (275-300 g, kindling test; 100-150 g all other tests; Charles River, Raleigh, N.C.) were used as experimental animals.

[2] = system: MES-induced seizures; test: Maximal Electroshock Seizure (MES) test, mice; details: for responders at 30 mg/kg / responders at 100 mg/kg / responders at 300 mg/kg: Mus musculus, ip
Source text: The MES test is a model for generalized tonic-clonic seizures. The seizures are highly reproducible and electrophysiologically consistent with human seizures. The test provides information about a compound's ability to prevent the spread of seizure when all neuronal circuits of the brain are maximally active. 60 Hz of alternating current (50 mA in mice, 150 mA in rats) is applied for 2 seconds via corneal electrodes that have been treated with an electrolyte solution containing an anesthetic (0.5% tetracaine HCl). Mice are tested at a variety of intervals after an i.p. injection of […] solution of the test compound (commonly in a 0.5% solution of methylcellulose) at 30, 100, and 300 mg/kg doses. Rats are examined after a 30 mg/kg (per os, p.o.) dose that is applied in a volume of 0.04 mL/g. An animal is considered “protected” from MES-induced seizures upon removal of the hind limb extensor component of the seizure.
as §1

[3] = Acute toxicity, minimal motor impairment (rotorod), mice; details: mice, rotorod; for TOX 30 0.5 h (animals toxic/tested) / TOX 30 4 h (animals toxic/tested): 30 mg/kg; for TOX 100 0.5 h (animals toxic/tested) / TOX 100 4 h (animals toxic/tested): 100 mg/kg; for TOX 300 0.5 h (animals toxic/tested) / TOX 300 4 h (animals toxic/tested): 300 mg/kg
Description: Toxicity was measured using the minimal motor impairment test described below.
Animals are monitored for overt signs of impaired neurological or muscular function to assess a compound's toxicity. In mice, the rotorod procedure is used to disclose minimal muscular or neurological impairment. When a mouse is placed on a rotating rod (6 rpm), the animal can maintain its equilibrium for long periods of time. The animal is considered toxic if it falls off the rotating rod three times during a 1 minute period. In rats, minimal motor deficit is indicated by ataxia, which is manifested by an abnormal, uncoordinated gait.

[4] = 0.4 h, read-out: scMET 30 0.4 h (animals protected/tested)
[5] = 0.4 h, read-out: scMET 100 0.4 h (animals protected/tested)
[6] = 0.4 h, read-out: scMET 300 0.4 h (animals protected/tested)
[7] = 0.5 h, read-out: scMET 30 0.5 h (animals protected/tested)
[8] = 0.5 h, read-out: scMET 100 0.5 h (animals protected/tested)
[9] = 0.5 h, read-out: scMET 300 0.5 h (animals protected/tested)
[10] = 0.5 h, read-out: MES 30 0.5 h (animals protected/tested)
[11] = 0.5 h, read-out: MES 100 0.5 h (animals protected/tested)
[12] = 0.5 h, read-out: MES 300 0.5 h (animals protected/tested)
[13] = 4 h, read-out: MES 30 4 h (animals protected/tested)
[14] = 4 h, read-out: MES 100 4 h (animals protected/tested)
[15] = 4 h, read-out: MES 300 4 h (animals protected/tested)
[16] = mice, 30 mg/kg, 0.4 h, read-out: scMET 30 0.4 h (animals protected/tested)
[17] = mice, 30 mg/kg, 0.5 h, read-out: scMET 30 0.5 h (animals protected/tested)
[18] = mice, 100 mg/kg, 0.4 h, read-out: scMET 100 0.4 h (animals protected/tested)
[19] = mice, 100 mg/kg, 0.5 h, read-out: scMET 100 0.5 h (animals protected/tested)
[20] = mice, 300 mg/kg, 0.4 h, read-out: scMET 300 0.4 h (animals protected/tested)
[21] = mice, 300 mg/kg, 0.5 h, read-out: scMET 300 0.5 h (animals protected/tested)
[22] = mice, i.p., 30 mg/kg, 0.5 h, read-out: MES 30 0.5 h (animals protected/tested)
[23] = mice, i.p., 30 mg/kg, 4 h, read-out: MES 30 4 h (animals protected/tested)
[24] = mice, i.p., 100 mg/kg, 0.5 h, read-out: MES 100 0.5 h (animals protected/tested)
[25] = mice, i.p., 100 mg/kg, 4 h, read-out: MES 100 4 h (animals protected/tested)
[26] = mice, i.p., 300 mg/kg, 0.5 h, read-out: MES 300 0.5 h (animals protected/tested)
[27] = mice, i.p., 300 mg/kg, 4 h, read-out: MES 300 4 h (animals protected/tested)

CCOC(=O)[C@@H]1[C@H]2O[C@@H]3CO[Si](C(C)(C)C)(C(C)(C)C)O[C@H]3/C(=N/O)[C@H]21 [Compound 4]
responders at 30 mg/kg [1, 4]: 0% | responders at 100 mg/kg [1, 5]: 0% | responders at 300 mg/kg [1, 6]: 0% | responders at 30 mg/kg [1, 7]: 0% | responders at 100 mg/kg [1, 8]: 0% | responders at 300 mg/kg [1, 9]: 0% | responders at 30 mg/kg [2, 10]: 0% | responders at 100 mg/kg [2, 11]: 0% | responders at 300 mg/kg [2, 12]: 0% | responders at 30 mg/kg [2, 13]: 0% | responders at 100 mg/kg [2, 14]: 0% | responders at 300 mg/kg [2, 15]: 0% | TOX 30 0.5 h (animals toxic/tested) [3]: 0/4 | TOX 30 4 h (animals toxic/tested) [3]: 0/2 | TOX 100 0.5 h (animals toxic/tested) [3]: 0/8 | TOX 100 4 h (animals toxic/tested) [3]: 1/4 | TOX 300 0.5 h (animals toxic/tested) [3]: 0/4 | TOX 300 4 h (animals toxic/tested) [3]: 0/2

CCOC(=O)[C@@H]1[C@H]2O[C@@H]3CO[Si](C(C)(C)C)(C(C)(C)C)O[C@H]3[C@H](OS(=O)(=O)N(C)C)[C@H]21 [Compound 5, (1S,1as,2R,2aR,6aR,7aS)-4,4-di-tert-butyl-2-dimethylsulfamoyloxy-hexahydro-3,5,7-trioxa-4-sila-cyclopropa[b]naphthalene-1-carboxylic acid ethyl ester]
responders at 30 mg/kg [1, 4]: 0% | responders at 100 mg/kg [1, 5]: 0% | responders at 300 mg/kg [1, 6]: 0% | responders at 30 mg/kg [1, 7]: 0% | responders at 100 mg/kg [1, 8]: 0% | responders at 300 mg/kg [1, 9]: 0% | responders at 30 mg/kg [2, 10]: 0% | responders at 100 mg/kg [2, 11]: 0% | responders at 300 mg/kg [2, 12]: 0% | responders at 30 mg/kg [2, 13]: 0% | responders at 100 mg/kg [2, 14]: 0% | responders at 300 mg/kg [2, 15]: 0% | TOX 30 0.5 h (animals toxic/tested) [3]: 0/4 | TOX 30 4 h (animals toxic/tested) [3]: 0/2 | TOX 100 0.5 h (animals toxic/tested) [3]: 0/8 | TOX 100 4 h (animals toxic/tested) [3]: 0/4 | TOX 300 0.5 h (animals toxic/tested) [3]: 1/4 | TOX 300 4 h (animals toxic/tested) [3]: 0/2

CCOC(=O)C1[C@@H]2[C@@H](O)[C@@H]3OC(C)(C)OC[C@H]3O[C@H]12 (stereo partly drawn) [Compound 6a, Ethyl (4aR,5aS,6aR,7R,7aS)-7-hydroxy-2,2-dimethylhexahydro-4H-cyclopropa[5,6]pyrano[3,2-d][1,3]dioxine-6-carboxylate]
responders at 30 mg/kg [1, 16]: 0% | responders at 30 mg/kg [1, 17]: 0% | responders at 100 mg/kg [1, 18]: 0% | responders at 100 mg/kg [1, 19]: 0% | responders at 300 mg/kg [1, 20]: 0% | responders at 300 mg/kg [1, 21]: 0% | responders at 30 mg/kg [2, 22]: 0% | responders at 30 mg/kg [2, 23]: 0% | responders at 100 mg/kg [2, 24]: 0% | responders at 100 mg/kg [2, 25]: 0% | responders at 300 mg/kg [2, 26]: 0% | responders at 300 mg/kg [2, 27]: 0% | TOX 30 0.5 h (animals toxic/tested) [3]: 0/4 | TOX 30 4 h (animals toxic/tested) [3]: 0/2 | TOX 100 0.5 h (animals toxic/tested) [3]: 0/8 | TOX 100 4 h (animals toxic/tested) [3]: 0/4 | TOX 300 0.5 h (animals toxic/tested) [3]: 0/4 | TOX 300 4 h (animals toxic/tested) [3]: 0/2

CCOC(=O)C1[C@@H]2[C@@H](OS(=O)(=O)N(C)C)[C@@H]3OC(C)(C)OC[C@H]3O[C@H]12 (stereo partly drawn) [Compound 8a, Ethyl (4aR,5aS,6aS,7R,7aR)-7-[(dimethlylsulfamoyl)oxy]-2,2-dimethylhexahydro-4H-cyclopropa[5,6]pyrano[3,2-d][1,3]dioxine-6-carboxylate]
scMET 30 0.4 h (animals protected/tested) ([1]; mice, 30 mg/kg, 0.4 h): 0/1 | scMET 30 0.5 h (animals protected/tested) ([1]; mice, 30 mg/kg, 0.5 h): 0/1 | scMET 100 0.4 h (animals protected/tested) ([1]; mice, 100 mg/kg, 0.4 h): 0/1 | scMET 100 0.5 h (animals protected/tested) ([1]; mice, 100 mg/kg, 0.5 h): 0/1 | scMET 300 0.4 h (animals protected/tested) ([1]; mice, 300 mg/kg, 0.4 h): 0/1 | scMET 300 0.5 h (animals protected/tested) ([1]; mice, 300 mg/kg, 0.5 h): 0/1 | MES 30 0.5 h (animals protected/tested) ([2]; mice, i.p., 30 mg/kg, 0.5 h): 0/1 | MES 30 4 h (animals protected/tested) ([2]; mice, i.p., 30 mg/kg, 4 h): 0/1 | MES 100 0.5 h (animals protected/tested) ([2]; mice, i.p., 100 mg/kg, 0.5 h): 0/3 | MES 100 4 h (animals protected/tested) ([2]; mice, i.p., 100 mg/kg, 4 h): 0/3 | MES 300 0.5 h (animals protected/tested) ([2]; mice, i.p., 300 mg/kg, 0.5 h): 0/1 | MES 300 4 h (animals protected/tested) ([2]; mice, i.p., 300 mg/kg, 4 h): 0/1 | TOX 30 0.5 h (animals toxic/tested) [3]: 0/4 | TOX 30 4 h (animals toxic/tested) [3]: 0/2 | TOX 100 0.5 h (animals toxic/tested) [3]: 0/8 | TOX 100 4 h (animals toxic/tested) [3]: 0/4 | TOX 300 0.5 h (animals toxic/tested) [3]: 1/4 | TOX 300 4 h (animals toxic/tested) [3]: 0/2

CCOC(=O)C1[C@@H]2[C@@H](OS(N)(=O)=O)[C@@H]3OC(C)(C)OC[C@H]3O[C@H]12 (stereo partly drawn) [Compound 8b, ethyl (4aR,5aS,6aS,7R,7aR)-2,2-dimethyl-7-(sulfamoyloxy)hexahydro-4H-cyclopropa[5,6]pyrano[3,2-d][1,3]dioxine-6-carboxylate]
responders at 30 mg/kg [1, 16]: 0% | responders at 30 mg/kg [1, 17]: 0% | responders at 100 mg/kg [1, 18]: 0% | responders at 100 mg/kg [1, 19]: 0% | responders at 300 mg/kg [1, 20]: 0% | responders at 300 mg/kg [1, 21]: 0% | responders at 30 mg/kg [2, 22]: 0% | responders at 30 mg/kg [2, 23]: 0% | responders at 100 mg/kg [2, 24]: 0% | responders at 100 mg/kg [2, 25]: 0% | responders at 300 mg/kg [2, 26]: 0% | responders at 300 mg/kg [2, 27]: 0% | TOX 30 0.5 h (animals toxic/tested) [3]: 0/4 | TOX 30 4 h (animals toxic/tested) [3]: 0/2 | TOX 100 0.5 h (animals toxic/tested) [3]: 1/8 | TOX 100 4 h (animals toxic/tested) [3]: 0/4 | TOX 300 0.5 h (animals toxic/tested) [3]: 1/4 | TOX 300 4 h (animals toxic/tested) [3]: 0/2
